± gives the expanded uncertainty stated by the source.
Assay: xn = mol fraction of the nth substance listed
Settings: Pycnometric method

With CC1COC(=O)O1 (configuration not stated) [4-methyl-1,3-dioxolan-2-one] + O=C=O the mass density (313 K, 2000 kPa, Gas, x2 = 0.9953) was 47.6 ± 16 kg/m3, the mass density (313 K, 2000 kPa, Liquid, x2 = 0.2593) was 1170 ± 44 kg/m3 and the mass density (313 K, 3000 kPa, Gas, x2 = 0.9895) was 73 ± 16 kg/m3. The mass density (313 K, 3000 kPa, Liquid, x2 = 0.3384) was 1170 ± 44 kg/m3, the mass density (313 K, 4000 kPa, Gas, x2 = 0.9864) was 97.2 ± 16 kg/m3 and the mass density (313 K, 4000 kPa, Liquid, x2 = 0.4022) was 1160 ± 44 kg/m3. The mass density (313 K, 5000 kPa, Gas, x2 = 0.9894) was 136.8 ± 16 kg/m3, the mass density (313 K, 5000 kPa, Liquid, x2 = 0.4548) was 1164.8 ± 44 kg/m3 and the mass density (313 K, 6000 kPa, Gas, x2 = 0.9963) was 170.5 ± 16 kg/m3. For the same compound, the mass density (313 K, 6000 kPa, Liquid, x2 = 0.4919) was 1156 ± 44 kg/m3, the mass density (313 K, 7000 kPa, Gas, x2 = 0.99) was 224.7 ± 16 kg/m3 and the mass density (313 K, 7000 kPa, Liquid, x2 = 0.542) was 1141.4 ± 43 kg/m3. For the same compound, the mass density (313 K, 8000 kPa, Gas, x2 = 0.99) was 244 ± 16 kg/m3, the mass density (313 K, 8000 kPa, Liquid, x2 = 0.5706) was 1129.7 ± 43 kg/m3 and the mass density (313 K, 9000 kPa, Gas, x2 = 0.9907) was 276.7 ± 16 kg/m3. The mass density (313 K, 9000 kPa, Liquid, x2 = 0.6169) was 1109.2 ± 42 kg/m3, the mass density (313 K, 10000 kPa, Gas, x2 = 0.9841) was 339.9 ± 18 kg/m3 and the mass density (313 K, 10000 kPa, Liquid, x2 = 0.6579) was 1089.3 ± 41 kg/m3. For the same compound, the mass density (313 K, 11000 kPa, Gas, x2 = 0.9866) was 366.2 ± 16 kg/m3, the mass density (313 K, 11000 kPa, Liquid, x2 = 0.6915) was 1073 ± 41 kg/m3 and the mass density (313 K, 12000 kPa, Gas, x2 = 0.9694) was 390.8 ± 16 kg/m3. It also gave a mass density (313 K, 12000 kPa, Liquid, x2 = 0.7279) of 1046.6 ± 49 kg/m3, a mass density (333 K, 3000 kPa, Gas, x2 = 0.9942) of 52 ± 16 kg/m3 and a mass density (333 K, 3000 kPa, Liquid, x2 = 0.2425) of 1090.7 ± 42 kg/m3. It also gave a mass density (333 K, 4000 kPa, Gas, x2 = 0.9968) of 77.8 ± 18 kg/m3, a mass density (333 K, 4000 kPa, Liquid, x2 = 0.2787) of 1096.7 ± 42 kg/m3 and a mass density (333 K, 5000 kPa, Gas, x2 = 0.9922) of 100.2 ± 18 kg/m3. For the same compound, the mass density (333 K, 5000 kPa, Liquid, x2 = 0.3272) was 1106.7 ± 42 kg/m3, the mass density (333 K, 6000 kPa, Gas, x2 = 0.9862) was 116.8 ± 16 kg/m3 and the mass density (333 K, 6000 kPa, Liquid, x2 = 0.3723) was 1105.7 ± 42 kg/m3. For the same compound, the mass density (333 K, 7000 kPa, Gas, x2 = 0.9885) was 147.9 ± 17 kg/m3, the mass density (333 K, 7000 kPa, Liquid, x2 = 0.4079) was 1109.2 ± 42 kg/m3 and the mass density (333 K, 8000 kPa, Gas, x2 = 0.9898) was 174.5 ± 19 kg/m3. For the same compound, the mass density (333 K, 8000 kPa, Liquid, x2 = 0.4512) was 1110.2 ± 42 kg/m3, the mass density (333 K, 9000 kPa, Gas, x2 = 0.984) was 199.6 ± 16 kg/m3 and the mass density (333 K, 9000 kPa, Liquid, x2 = 0.4846) was 1102.2 ± 42 kg/m3. For the same compound, the mass density (333 K, 10000 kPa, Gas, x2 = 0.9855) was 230.2 ± 19 kg/m3, the mass density (333 K, 10000 kPa, Liquid, x2 = 0.5244) was 1091.2 ± 42 kg/m3 and the mass density (333 K, 11000 kPa, Gas, x2 = 0.9812) was 271.3 ± 17 kg/m3. For the same compound, the mass density (333 K, 11000 kPa, Liquid, x2 = 0.5725) was 1077.1 ± 41 kg/m3, the mass density (333 K, 12000 kPa, Gas, x2 = 0.9888) was 326.5 ± 17 kg/m3 and the mass density (333 K, 12000 kPa, Liquid, x2 = 0.6065) was 1061.1 ± 40 kg/m3. The mass density (333 K, 13000 kPa, Gas, x2 = 0.9883) was 411.2 ± 18 kg/m3, the mass density (333 K, 13000 kPa, Liquid, x2 = 0.6246) was 1052.5 ± 40 kg/m3 and the mass density (353 K, 1000 kPa, Gas, x2 = 0.952) was 18.6 kg/m3. For the same compound, the mass density (353 K, 1000 kPa, Liquid, x2 = 0.081) was 1011 ± 38 kg/m3, the mass density (353 K, 2000 kPa, Gas, x2 = 0.9663) was 32.2 kg/m3 and the mass density (353 K, 2000 kPa, Liquid, x2 = 0.115) was 1024.5 ± 39 kg/m3. The mass density (353 K, 3000 kPa, Gas, x2 = 0.9679) was 50.9 ± 16 kg/m3, the mass density (353 K, 3000 kPa, Liquid, x2 = 0.1518) was 1030 ± 39 kg/m3 and the mass density (353 K, 4000 kPa, Gas, x2 = 0.9679) was 68.5 ± 16 kg/m3. It also gave a mass density (353 K, 4000 kPa, Liquid, x2 = 0.196) of 1040.8 ± 40 kg/m3, a mass density (353 K, 5000 kPa, Gas, x2 = 0.9591) of 84.4 ± 16 kg/m3 and a mass density (353 K, 5000 kPa, Liquid, x2 = 0.2317) of 1044.3 ± 40 kg/m3. The mass density (353 K, 6000 kPa, Gas, x2 = 0.9866) was 100 ± 16 kg/m3, the mass density (353 K, 6000 kPa, Liquid, x2 = 0.2852) was 1054.8 ± 40 kg/m3 and the mass density (353 K, 7000 kPa, Gas, x2 = 0.9836) was 115 ± 16 kg/m3. It also gave a mass density (353 K, 7000 kPa, Liquid, x2 = 0.3205) of 1062.4 ± 40 kg/m3, a mass density (353 K, 8000 kPa, Gas, x2 = 0.9922) of 164.5 ± 16 kg/m3 and a mass density (353 K, 8000 kPa, Liquid, x2 = 0.351) of 1050 ± 40 kg/m3. The mass density (353 K, 9000 kPa, Gas, x2 = 0.9891) was 206 ± 16 kg/m3, the mass density (353 K, 9000 kPa, Liquid, x2 = 0.3881) was 1048.4 ± 40 kg/m3 and the mass density (353 K, 10000 kPa, Gas, x2 = 0.9709) was 224.7 ± 17 kg/m3. The mass density (353 K, 10000 kPa, Liquid, x2 = 0.4112) was 1035.5 ± 39 kg/m3, the mass density (353 K, 11000 kPa, Gas, x2 = 0.9779) was 250 ± 16 kg/m3 and the mass density (353 K, 11000 kPa, Liquid, x2 = 0.4485) was 997.5 ± 38 kg/m3. For the same compound, the mass density (353 K, 12000 kPa, Gas, x2 = 0.9719) was 300 ± 16 kg/m3, the mass density (353 K, 12000 kPa, Liquid, x2 = 0.492) was 970.4 ± 37 kg/m3 and the mass density (353 K, 13000 kPa, Gas, x2 = 0.9842) was 320 ± 16 kg/m3. The mass density (353 K, 13000 kPa, Liquid, x2 = 0.5225) was 951.1 ± 36 kg/m3, the mass density (373 K, 3000 kPa, Gas, x2 = 0.9747) was 40 ± 16 kg/m3 and the mass density (373 K, 3000 kPa, Liquid, x2 = 0.1384) was 1000 ± 38 kg/m3. For the same compound, the mass density (373 K, 4000 kPa, Gas, x2 = 0.9779) was 60.5 ± 16 kg/m3, the mass density (373 K, 4000 kPa, Liquid, x2 = 0.1638) was 1004.9 ± 38 kg/m3 and the mass density (373 K, 5000 kPa, Gas, x2 = 0.98) was 82.7 ± 16 kg/m3. The mass density (373 K, 5000 kPa, Liquid, x2 = 0.2031) was 1005.4 ± 38 kg/m3, the mass density (373 K, 6000 kPa, Gas, x2 = 0.9802) was 95.9 ± 16 kg/m3 and the mass density (373 K, 6000 kPa, Liquid, x2 = 0.2367) was 1011.5 ± 39 kg/m3. It also gave a mass density (373 K, 7000 kPa, Gas, x2 = 0.9784) of 125.9 ± 16 kg/m3, a mass density (373 K, 7000 kPa, Liquid, x2 = 0.2692) of 1000 ± 38 kg/m3 and a mass density (373 K, 8000 kPa, Gas, x2 = 0.9795) of 149.8 ± 16 kg/m3. For the same compound, the mass density (373 K, 8000 kPa, Liquid, x2 = 0.2948) was 988.9 ± 38 kg/m3, the mass density (373 K, 9000 kPa, Gas, x2 = 0.9782) was 158 ± 18 kg/m3 and the mass density (373 K, 9000 kPa, Liquid, x2 = 0.3268) was 980.9 ± 37 kg/m3. For the same compound, the mass density (373 K, 10000 kPa, Gas, x2 = 0.9847) was 181 ± 16 kg/m3, the mass density (373 K, 10000 kPa, Liquid, x2 = 0.3403) was 960.8 ± 36 kg/m3 and the mass density (373 K, 11000 kPa, Gas, x2 = 0.9806) was 226.8 ± 21 kg/m3. For the same compound, the mass density (373 K, 11000 kPa, Liquid, x2 = 0.3805) was 940.7 ± 36 kg/m3, the mass density (373 K, 12000 kPa, Gas, x2 = 0.9848) was 241.7 ± 18 kg/m3 and the mass density (373 K, 12000 kPa, Liquid, x2 = 0.39) was 935.1 ± 36 kg/m3. For the same compound, the mass density (373 K, 13000 kPa, Gas, x2 = 0.9844) was 264.9 ± 16 kg/m3 and the mass density (373 K, 13000 kPa, Liquid, x2 = 0.4136) was 931.2 ± 35 kg/m3.

Source: the NIST ThermoML archive (doi:10.1021/je101086r)
